# Experimental data taken from patent US20050049294A1, “Methods of using [3.2.0] heterocyclic compounds and analogs thereof” (priority 2003, published 2005).
# Like-named read-outs stand apart in the source and are kept apart here.
# Columns and labels:
# [1] = test system: PC-3 cells; test: Cell growth inhibition (resazurin, 48 hours), PC-3; assay type: cell-based, human; settings: Homo sapiens, PC-3
# [2] = biological target: T1, chymotrypsin-like activity of rabbit muscle 20S proteasomes (Oryctolagus cuniculus, UniProt G1T4Q9); test: Inhibition of chymotrypsin-like activity of purified rabbit muscle 20S proteasome (suc-LLVY-AMC); assay type: biochemical
# T1 sequence (G1T4Q9 1-263): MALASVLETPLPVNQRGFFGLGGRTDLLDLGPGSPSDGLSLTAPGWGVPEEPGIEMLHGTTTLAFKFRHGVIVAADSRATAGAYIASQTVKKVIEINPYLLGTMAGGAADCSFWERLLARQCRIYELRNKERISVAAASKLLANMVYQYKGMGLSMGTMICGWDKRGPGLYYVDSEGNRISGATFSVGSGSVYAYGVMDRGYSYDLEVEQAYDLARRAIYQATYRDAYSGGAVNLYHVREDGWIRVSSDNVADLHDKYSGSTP
# Method: This peptide substrate is specific for the chymotrypsin-like enzyme activity of the proteasome.
# Omuralide was prepared as a 10 mM stock in DMSO and stored in 5 μL aliquots at −80° C. […] The assay measures the hydrolysis of Suc-LLVY-AMC into Suc-LLVY and AMC. The released coumarin (AMC) was measured fluorometrically by using λex=390 nm and λem=460 nm. The assays were performed in a microtiter plate (Corning 3904), and followed kinetically with measurements every five minutes. The instrument used was a Thermo Lab Systems Fluoroskan, with the incubation chamber set to 37° C. The assays were performed according to the manufacturer's protocol, with the following changes. The proteasome was activated as described with SDS, and held on ice prior to the assay. […] Ten microliters of each dose were added in triplicate to the assay plate, and 190 μL of the activated proteasome was added and mixed. The samples were pre-incubated in the Fluoroskan for 5 minutes at 37° C. Substrate was added and the kinetics of AMC were followed for one hour.
# [3] = test system: MDA-MB-231 cells; test: Cell growth inhibition (resazurin, 48 hours), MDA-MB-231; assay type: cell-based; settings: Homo sapiens, MDA-MB-231
# [4] = biological target: T2, trypsin-like activity of purified rabbit 20S proteasomes (Oryctolagus cuniculus, UniProt G1SWK8); settings: under the conditions tested
# T2 sequence (G1SWK8 1-271): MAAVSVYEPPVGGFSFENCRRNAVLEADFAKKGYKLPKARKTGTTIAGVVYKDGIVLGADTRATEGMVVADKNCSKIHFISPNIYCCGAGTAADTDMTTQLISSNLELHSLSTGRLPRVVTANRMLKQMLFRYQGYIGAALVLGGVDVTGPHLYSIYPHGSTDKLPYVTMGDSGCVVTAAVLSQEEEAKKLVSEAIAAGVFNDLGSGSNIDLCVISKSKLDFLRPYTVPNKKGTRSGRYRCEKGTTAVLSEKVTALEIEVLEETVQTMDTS
# [5] = test system: NF-κB-mediated luciferase activity in HEK293 NF-κB/Luc cells; test: NF-κB-mediated luciferase reporter gene assay; assay type: cell-based, human; settings: for luciferase activity upon TNF-α stimulation: pretreatment of NF-κB/Luc 293 cells
# Method: (§1) The HEK293 NF-κB/luciferase reporter cell line is a derivative of the human embryonic kidney cell line (ATCC; CRL- 1573) and carries a luciferase reporter gene under the regulation of 5×NF-κB binding sites. […] When performing the luciferase assay, the DMEM basal medium was replaced with phenol-red free DMEM basal medium and the G418 was omitted.
# For NF-κB-mediated luciferase assays, HEK293 NF-κB/luciferase cells were seeded at 1.5×10^4 cells/well in 90 μl phenol-red free DMEM complete medium into Corning 3917 white opaque-bottom tissue culture plates. […] This dilution series was further diluted 40× in appropriate culture medium and ten μl aliquots were added to the test wells in triplicate resulting in final test concentrations ranging from 1 μM to 320 pM. […] For Formula II-19, a 127 μM starting dilution was made in 100% DMSO and the final test concentrations ranging from 317 nM to 0.1 nM. […] After 1 hr pretreatment, 10 μl of a 50 ng/ml TNF-α solution, prepared in the phenol-red free DMEM medium was added, and the plates were incubated for an additional 6 hr.
# NF-κB inducible luciferase activity was measured at 6 hours.
# as §1, with “CRL-1573)” for “CRL- 1573)”
# For NF-κB-mediated luciferase assays, HEK293 NF-κB/luciferase cells were seeded at 1.5×10^4 cells/well in 90 μl phenol-red free DMEM complete medium into Corning 3917 white opaque-bottom tissue culture plates. For Formula II-2, Formula II-4 and Formula II-5A, a 400 μM starting dilution was made in 100% DMSO and this dilution was used to generate a 8-point half log dilution series. This dilution series was further diluted 40× in appropriate culture medium and ten μl aliquots were added to the test wells in triplicate resulting in final test concentrations ranging from 1 μM to 320 pM. […] After 1 hr pretreatment, 10 μl of a 50 ng/ml TNF-α solution, prepared in the phenol-red free DMEM medium was added, and the plates were incubated for an additional 6 hr.
# The relative luciferase units (RLU) were measured by using a Fusion microplate fluorometer (Packard Bioscience).
# [6] = biological target: PGPH (caspase-like) activity of rabbit muscle 20S proteasomes (Oryctolagus cuniculus, UniProt A0A5F9DQW2); test: Inhibition of caspase-like (PGPH) activity of 20S proteasome (Z-LLE-AMC); assay type: biochemical; settings: Table 3; mean EC50; purified rabbit 20S proteasomes
# Sequence of PGPH (caspase-like) activity of rabbit muscle 20S proteasomes (A0A5F9DQW2 1-212): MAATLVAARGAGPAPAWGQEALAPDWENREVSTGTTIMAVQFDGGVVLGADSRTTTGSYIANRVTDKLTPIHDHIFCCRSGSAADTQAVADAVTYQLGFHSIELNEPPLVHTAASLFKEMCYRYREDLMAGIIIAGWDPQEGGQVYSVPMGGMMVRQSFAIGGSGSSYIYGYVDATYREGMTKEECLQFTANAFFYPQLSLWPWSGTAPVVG
# Method: A commercially available fluorogenic substrate specific for the PGPH activity was used instead of the chymotrypsin substrate supplied in the proteasome assay kit described above.
# The substrate Z-LLE-AMC was prepared as a 20 mM stock solution in DMSO, stored at −20° C. The source of the proteasomes was the commercially available kit from Calbiochem (Cat. #539158). As with the chymotrypsin substrate, the proteasome can cleave Z-LLE-AMC into Z-LLE and free AMC. The activity can then be determined by measuring the fluorescence of the released AMC (λex=390 nm and λem=460 nm). The proteasomes were activated with SDS and held on ice as per manufacturer's recommendation. […] The series was diluted 20-fold with assay buffer and preincubated with the proteasomes as described for the chymotrypsin-like activity. After addition of substrate, the samples were incubated at 37° C., and release of the fluorescent AMC was monitored in a fluorimeter. All data were collected and plotted as the mean of triplicate points. […] As before, the model chosen was a sigmoidal dose-response, with a variable slope.
# [7] = test system: HT-29 cells; test: Cell growth inhibition (resazurin, 48 hours), HT-29; assay type: cell-based; settings: Homo sapiens, HT-29
# [8] = biological target: T2, trypsin-like activity of purified rabbit 20S proteasomes; test: biochemical
# [9] = test system: NCI-H292 cells; test: Cell growth inhibition (resazurin, 48 hours), NCI-H292; assay type: cell-based, human; settings: Homo sapiens, NCI-H292
# [10] = test system: U266 cells; test: Cell growth inhibition (resazurin, 48 hours), U266
# [11] = test system: RPMI 8226 cells; test: Cell growth inhibition (resazurin, 48 hours), RPMI 8226
# [12] = test system: LeTx-induced cytotoxicity of RAW264.7 cells; test: cells; settings: Mus musculus, RAW264.7, read-out: EC50 (nM), inhibition of RAW 264.7 cell cytotoxicity mediated by anthrax lethal toxin
# [13] = test system: MES-SA cells; test: Cell growth inhibition (resazurin, 48 hours), MES-SA
# [14] = test system: MES-SA/Dx5 cells; test: cells
# [15] = Table 3, mean EC50, purified rabbit 20S proteasomes, read-out: EC50 Values, Chymotrypsin-like
# [16] = Homo sapiens, U-266, Table 13, U266
# [17] = Homo sapiens, U-266, read-out: U266 EC50 (nM), Table 15, mean EC50
# [18] = Homo sapiens, RPMI-8226, Table 13, RPMI 8226
# [19] = Homo sapiens, RPMI-8226, read-out: RPMI 8226 EC50 (nM), Table 15, mean EC50
Compound,"EC50 [2, 15]",inhibit the trypsin-like activity of the 20S proteasome [4],luciferase activity upon TNF-α stimulation [5],EC50 [6],EC50 [8],"EC50 [10, 17]","EC50 [11, 19]",EC50 [12],also measured
C[C@@]12OC(=O)[C@]1([C@@H](O)[C@@H]1C=CCCC1)NC(=O)[C@@H]2CCI [Formula II-19],3 nM,able to inhibit,dose-dependent decrease,573 nM,13 nM,3.3 nM,6.5 nM,,"EC50 [1]: 27 nM; EC50 [3]: 17 nM; EC50 [7]: 13 nM; EC50 ([9]; NCI-H292, Table 13): 31 nM; EC50 [10, 16]: 3.2 nM; EC50 ([10]; Table 13, U266): 3.4 nM; EC50 [11, 18]: 5.9 nM; EC50 ([11]; Table 13, RPMI 8226): 7.1 nM"
CCC(=O)OCC[C@H]1C(=O)N[C@@]2([C@@H](O)[C@@H]3C=CCCC3)C(=O)O[C@@]12C [Formula II-22],5 nM,able to inhibit,dose-dependent decrease,1300 nM,308 nM,,,,
C[C@H]1C(=O)N[C@@]2([C@@H](O)[C@@H]3C=CCCC3)C(=O)O[C@@]12C [Formula II-20],5 nM,able to inhibit,dose-dependent decrease,1400 nM,318 nM,3810 nM,10500 nM,,
CC12OC(=O)C1(C(=O)C1CCCCC1)NC(=O)C2CCCl (stereo not drawn) [Formula II-8C],,,,,,> 20000 nM,> 20000 nM,,
C[C@@]12OC(=O)[C@]1([C@@H](O)[C@H]1CCC[C@H](Cl)[C@H]1O)NC(=O)[C@@H]2CCCl [Formula IV-3C],7800 nM,,,> 20000 nM,,8020 nM,> 20000 nM,> 330 nM,
C[C@@]12OC(=O)[C@]1([C@@H](O)[C@H]1CCC[C@@H]3O[C@H]13)NC(=O)[C@@H]2CCCl [Formula II-5B],87 nM,able to inhibit,dose-dependent decrease,3300 nM,739 nM,115 nM,327 nM,45 nM,"EC50 ([1]; Table 13, read-out: EC50): 1330 nM; EC50 ([2]; representative experiment, Example 44 (FIG. 46, 47), read-out: EC50, chymotrypsin-like activity of the proteasome): 88 nM; EC50 ([3]; Table 13, read-out: EC50): 1040 nM; EC50 ([5]; Homo sapiens, HEK293, representative experiment, Example 43 (FIG. 44, 45), read-out: calculated EC50 to inhibit NF-κB inducible luciferase activity): 261 nM; EC50 ([7]; Table 13, read-out: EC50): 1070 nM; EC50 ([9]; Table 13, read-out: EC50): > 20000 nM; EC50 [10, 16]: 118 nM; EC50 ([10]; Table 13, U266): 111 nM; EC50 [11, 18]: 326 nM; EC50 ([11]; Table 13, RPMI 8226): 328 nM"
CC[C@@]12OC(=O)[C@]1([C@@H](O)[C@@H]1C=CCCC1)NC(=O)[C@@H]2CCCl [Formula II-24C],2200 nM,able to inhibit,dose-dependent decrease,> 20000 nM,3200 nM,,,,
"CC(=O)O[C@H]1C(=O)[C@@]2(C)[C@H]([C@H](OC(=O)c3ccccc3)[C@]3(O)C[C@H](OC(=O)[C@H](O)[C@@H](NC(=O)c4ccccc4)c4ccccc4)C(C)=C1C3(C)C)[C@]1(OC(C)=O)CO[C@@H]1C[C@@H]2O [Paclitaxel, reference compound]",,,,,,,,,"% cytotoxicity, mean ± SD [13]: 63 ± 7%; EC50 ([13]; Homo sapiens, MES-SA, read-out: EC50 (nM) MES-SA, Table 16): 5.6 nM; EC50 ([13]; Homo sapiens, MES-SA, read-out: EC50 (nM), mean, Table 7, MES-SA): 5 ± 2 nM; EC50 ([13]; read-out: EC50 (nM) MES-SA, Table 16): 4.6 nM; EC50 ([14]; Homo sapiens, MES-SA/Dx5, read-out: EC50 (nM), mean ± SD, Table 7, MES-SA/Dx5): 2040 ± 150 nM; Fold change ([14]; Table 16, ratio of EC50 values (MES-SA/Dx5:MES-SA)): 798 fold"
C[C@@]12OC(=O)[C@]1([C@@H](O)[C@@H]1C=CCCC1)NC(=O)[C@@H]2CCO [Formula II-21],7 nM,able to inhibit,dose-dependent decrease,2600 nM,720 nM,,,,
CC12OC(=O)C1(C(=O)C1C=CCCC1)NC(=O)C2CCCl (stereo not drawn) [Formula II-13C],8200 nM,able to inhibit,,> 20000 nM,10700 nM,> 20000 nM,> 20000 nM,> 330 nM,
